Experimental findings from patent US20250215014A1, “KINASE INHIBITORS, PREPARATION METHODS AND USES THEREOF” (InventisBio Co., Ltd., priority 2022, published 2025) are described below.

In test [1] the test system is Jurkat cells. The experiment in a line: Jurkat IL-2 Assay. The class given is cell-based. The note with it: Homo sapiens, anti-CD3/CD28 antibody, IL-2 level. On the procedure: Jurkat cells (ATCC) were cultured in RPMI-1640 medium supplemented with 10% FBS. In a 96-well plate, 250,000 cells in 130 uL were added to each assay well. Ten microliter compound solution (5 uM to 2.3 nM, 8 points with 3-fold dilution) were added to cells in each well and incubated for 60 minutes at 37° C. Then 10 uL anti-CD3/CD28 antibody (Catalog #10991, Stemcell) were added and incubated overnight at 37° C. After the incubation, 16 uL supernatants were transferred into a new 384-well white assay plate for cytokine analysis. IL-2 was quantified using Human IL-2 kit (Catalog #62HIL02PEG, Cisbio) as described in the manufacturer manual.
(§1) X is log of compound concentration, Y is the IL-2 concentration, increasing as X increases.

The target of test [2] is DGKa (Homo sapiens (Human), UniProt P23743). In words: DGK ADP-Glo Kinase Assay (DGKa). The test is classed as biochemical. To be noted: 10 nM DGKa, 15 uM ATP. The protocol:
(§2) Luminescence was recorded using an Tecan SPARK microplate reader.

Test [3] has as its system PBMC. The experiment in a line: Human PBMC IL-2 Assay. The note with it: anti-CD3/CD28 antibody, IL-2 level. The test is classed as cell-based. The protocol:
PBMC (frozen) obtained from health donor were thawed in RPMI-1640 medium with 10% o FBS, incubated for 4 h at 37° C. In a 96-well plate, 200,000 PBMC cells in 160 uL were added to each assay well. Ten microliter compound solution (10 uM to 0.6 nM, 8 points with 4-fold dilution) were added to cells in each well and incubated for 60 minutes at 37° C. Then 30 uL anti-CD3/CD28 antibody (Catalog #10991, Stemcell) were added to cells and incubated overnight at 37° C. After the incubation, 16 uL supernatants were transferred into a new 384-well white assay plate for cytokine analysis. IL-2 level was quantified using Human IL-2 kit (Catalog #62HIL02PEG, Cisbio) as described in the manufacturer manual.
Activation at […] activity (EC50) was calculated with the equation: […]
as §1

The target in test [4] is DGKz (Homo sapiens (Human), UniProt Q13574). In words: DGK ADP-Glo Kinase Assay (DGKz). The class given is biochemical. To be noted: 5 nM DGKz, 15 uM ATP. On the procedure:
as §2

Structures are written as SMILES.

DGKz, sequence (Q13574 whole entry): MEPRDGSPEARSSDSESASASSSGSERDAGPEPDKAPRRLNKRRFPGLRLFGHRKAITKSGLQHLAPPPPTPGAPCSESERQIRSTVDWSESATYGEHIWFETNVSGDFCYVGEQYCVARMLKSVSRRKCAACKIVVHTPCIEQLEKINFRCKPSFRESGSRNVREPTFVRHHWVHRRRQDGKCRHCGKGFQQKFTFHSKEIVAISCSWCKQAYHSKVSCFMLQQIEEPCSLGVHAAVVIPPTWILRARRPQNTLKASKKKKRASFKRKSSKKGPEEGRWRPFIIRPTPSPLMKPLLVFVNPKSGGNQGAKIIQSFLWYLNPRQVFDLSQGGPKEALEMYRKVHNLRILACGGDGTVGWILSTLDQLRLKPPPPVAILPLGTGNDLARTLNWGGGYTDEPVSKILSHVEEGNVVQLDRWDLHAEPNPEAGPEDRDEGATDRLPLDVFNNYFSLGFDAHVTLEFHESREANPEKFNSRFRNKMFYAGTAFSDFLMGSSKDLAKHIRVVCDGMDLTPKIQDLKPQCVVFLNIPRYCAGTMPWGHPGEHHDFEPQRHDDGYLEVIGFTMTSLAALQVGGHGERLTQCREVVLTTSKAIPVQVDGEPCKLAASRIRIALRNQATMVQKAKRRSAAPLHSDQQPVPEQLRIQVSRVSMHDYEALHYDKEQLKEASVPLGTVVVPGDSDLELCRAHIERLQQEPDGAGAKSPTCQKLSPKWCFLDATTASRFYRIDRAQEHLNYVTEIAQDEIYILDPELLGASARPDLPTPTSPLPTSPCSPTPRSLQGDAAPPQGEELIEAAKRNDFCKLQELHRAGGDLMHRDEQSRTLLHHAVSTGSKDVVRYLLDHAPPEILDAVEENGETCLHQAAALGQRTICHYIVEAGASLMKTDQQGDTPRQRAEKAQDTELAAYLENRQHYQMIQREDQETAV
DGKa, sequence (P23743 whole entry): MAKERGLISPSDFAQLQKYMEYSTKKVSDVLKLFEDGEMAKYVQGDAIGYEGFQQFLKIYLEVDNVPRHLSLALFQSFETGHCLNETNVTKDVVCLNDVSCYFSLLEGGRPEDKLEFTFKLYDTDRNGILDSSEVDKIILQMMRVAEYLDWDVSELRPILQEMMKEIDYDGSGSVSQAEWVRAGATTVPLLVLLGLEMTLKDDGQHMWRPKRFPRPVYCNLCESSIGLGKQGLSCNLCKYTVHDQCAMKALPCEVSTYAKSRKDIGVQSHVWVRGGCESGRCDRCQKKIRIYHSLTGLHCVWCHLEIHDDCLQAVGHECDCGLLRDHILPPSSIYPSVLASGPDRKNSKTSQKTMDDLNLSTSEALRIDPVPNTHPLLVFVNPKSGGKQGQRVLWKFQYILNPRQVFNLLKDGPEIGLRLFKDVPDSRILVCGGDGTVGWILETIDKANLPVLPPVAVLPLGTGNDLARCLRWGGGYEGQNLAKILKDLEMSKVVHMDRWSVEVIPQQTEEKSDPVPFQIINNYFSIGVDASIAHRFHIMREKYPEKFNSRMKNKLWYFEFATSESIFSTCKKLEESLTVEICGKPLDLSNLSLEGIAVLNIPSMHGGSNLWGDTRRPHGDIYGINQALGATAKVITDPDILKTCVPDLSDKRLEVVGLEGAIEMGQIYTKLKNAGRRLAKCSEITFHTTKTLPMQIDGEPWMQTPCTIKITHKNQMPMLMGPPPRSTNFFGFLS

With `Cn1c(=O)nc(N2CCC(Oc3ccc(OC(F)(F)F)cc3)CC2)c2c1ccc1nncn12` [Compound 21], the EC50 in test [1] was above 1000 nM.

As to `CC[C@H]1C[C@@H](Oc2ccc(OC(F)(F)F)cc2)CCN1c1nc(=O)n(C)c2ccc(C#N)nc12` [Compound 17], the IC50 in test [2] is below 100 nM; in test [4] it was 100 to 1000 nM. In addition, the EC50 in test [3] was below 500 nM.

Consider `Cn1c(=O)nc(N2CCC3(CC2)CC(c2ccccc2C(F)(F)F)=NO3)c2nc(C#N)ccc21` [Compound 48], for which the EC50 in test [3] was above 1000 nM.

Regarding `Cn1c(=O)nc(N2CCC(Oc3ccc(OC(F)(F)F)cc3)CC2)c2nc(C#N)ccc21` [Compound 5], the IC50 in test [2] and in test [4] was 100 to 1000 nM in each case. In addition, the EC50 in test [3] lay in the range of 500 to 1000 nM.

In test [1], `C[C@H]1CC2(CCN1c1nc(=O)n(C)c3ccc(C#N)nc13)CC(c1ccc(OC(F)(F)F)cc1)=NO2` (stereo partly shown) [Compound 50] gave an EC50 below 500 nM.

Take `CC[C@@H]1C[C@@H](Oc2ccc(OC(F)(F)F)cc2)CCN1c1nc(=O)n(C)c2ccc(C#N)nc12` (stereo in doubt) [Compound 19]: the IC50 was above 1000 nM in test [2] and below 100 nM in test [4]. Further, the EC50 in test [3] was in the range of 500 to 1000 nM.

Turning to `CC[C@H]1CN([C@@H]2CCCCc3cc(C(F)(F)F)ccc32)[C@H](CC)CN1c1nc(=O)n(C)c2ccc(C#N)nc12` [Compound 45], the IC50 was 100 to 1000 nM in test [2] and below 100 nM in test [4]. In test [1], the EC50 fell in the range of 500 to 1000 nM.

For the compound `Cn1c(=O)c(C(N)=O)c(N2CCC3(CCN(c4ccc(OC(F)(F)F)cc4)C3)CC2)c2nc(C#N)ccc21` [Compound 6], the IC50 in test [2] and in test [4] was 100 to 1000 nM each time. Also, in test [3], the EC50 is above 1000 nM.

Compound `Cc1ccc2oc(C3(C)CCN(c4c(C#N)c(=O)n(C)c5ccc(C#N)nc45)CC3)nc2c1` [Compound 7] gave a concentration for a half-maximal effect (EC50) in test [3] below 500 nM.
